Data on 10 compounds can be found in patent US20060062732A1, “Medicine for detecting lipid components in vivo and vascular endoscope” (Yasumi UCHIDA, priority 2004, published 2006).

Series [1] can be described thus: Self-fluorescence of dyes and plaque substances by fluorescent microscopy. The class given is physicochemical. On the set-up: key to Self-fluorescence colour: B: blue.; G: green.; O: orange.; W: white.; Y: yellow. The settings on record: for Self-fluorescence present or not: exciting 360/emitting 420 nm or exciting 470/emitting 515 nm.
Series [2] addresses T1, ApoB100 (apolipoprotein B100) (Homo sapiens, UniProt P04114).
T1 construct: purchased ICN Biomedicals, Ohio
In words: Dye-evoked fluorescence of ApoB100, fluorescent microscopy. Further details: key: B: blue.; G: green.; O: orange.; W: white.; Y: yellow.

The target in series [3] is T1, ApoB100 (apolipoprotein B100). The description is as above. Further details: key: RO: reddish orange. The settings on record: ApoB (Table 4).
Series [4] has the same target. The series is described as above. Further details: key: B: blue.; Br: brown.; G: green.; Go: gold.; O: orange.; P: purple.; R: red.; SB: sky blue.; V: violet.; W: white.; Y: yellow. The settings on record: exciting 360 nm, emitting 420 nm.
Where [5] appears, read: exciting filter 360 nm, emitting filter 420 nm.
Where [6] appears, read: exciting filter 470 nm, emitting filter 515 nm.
[7] abbreviates: exciting 360 nm, emitting 420 nm.
[8] abbreviates: exciting 470 nm, emitting 515 nm.

T1 sequence (P04114 28-4563, species assumed): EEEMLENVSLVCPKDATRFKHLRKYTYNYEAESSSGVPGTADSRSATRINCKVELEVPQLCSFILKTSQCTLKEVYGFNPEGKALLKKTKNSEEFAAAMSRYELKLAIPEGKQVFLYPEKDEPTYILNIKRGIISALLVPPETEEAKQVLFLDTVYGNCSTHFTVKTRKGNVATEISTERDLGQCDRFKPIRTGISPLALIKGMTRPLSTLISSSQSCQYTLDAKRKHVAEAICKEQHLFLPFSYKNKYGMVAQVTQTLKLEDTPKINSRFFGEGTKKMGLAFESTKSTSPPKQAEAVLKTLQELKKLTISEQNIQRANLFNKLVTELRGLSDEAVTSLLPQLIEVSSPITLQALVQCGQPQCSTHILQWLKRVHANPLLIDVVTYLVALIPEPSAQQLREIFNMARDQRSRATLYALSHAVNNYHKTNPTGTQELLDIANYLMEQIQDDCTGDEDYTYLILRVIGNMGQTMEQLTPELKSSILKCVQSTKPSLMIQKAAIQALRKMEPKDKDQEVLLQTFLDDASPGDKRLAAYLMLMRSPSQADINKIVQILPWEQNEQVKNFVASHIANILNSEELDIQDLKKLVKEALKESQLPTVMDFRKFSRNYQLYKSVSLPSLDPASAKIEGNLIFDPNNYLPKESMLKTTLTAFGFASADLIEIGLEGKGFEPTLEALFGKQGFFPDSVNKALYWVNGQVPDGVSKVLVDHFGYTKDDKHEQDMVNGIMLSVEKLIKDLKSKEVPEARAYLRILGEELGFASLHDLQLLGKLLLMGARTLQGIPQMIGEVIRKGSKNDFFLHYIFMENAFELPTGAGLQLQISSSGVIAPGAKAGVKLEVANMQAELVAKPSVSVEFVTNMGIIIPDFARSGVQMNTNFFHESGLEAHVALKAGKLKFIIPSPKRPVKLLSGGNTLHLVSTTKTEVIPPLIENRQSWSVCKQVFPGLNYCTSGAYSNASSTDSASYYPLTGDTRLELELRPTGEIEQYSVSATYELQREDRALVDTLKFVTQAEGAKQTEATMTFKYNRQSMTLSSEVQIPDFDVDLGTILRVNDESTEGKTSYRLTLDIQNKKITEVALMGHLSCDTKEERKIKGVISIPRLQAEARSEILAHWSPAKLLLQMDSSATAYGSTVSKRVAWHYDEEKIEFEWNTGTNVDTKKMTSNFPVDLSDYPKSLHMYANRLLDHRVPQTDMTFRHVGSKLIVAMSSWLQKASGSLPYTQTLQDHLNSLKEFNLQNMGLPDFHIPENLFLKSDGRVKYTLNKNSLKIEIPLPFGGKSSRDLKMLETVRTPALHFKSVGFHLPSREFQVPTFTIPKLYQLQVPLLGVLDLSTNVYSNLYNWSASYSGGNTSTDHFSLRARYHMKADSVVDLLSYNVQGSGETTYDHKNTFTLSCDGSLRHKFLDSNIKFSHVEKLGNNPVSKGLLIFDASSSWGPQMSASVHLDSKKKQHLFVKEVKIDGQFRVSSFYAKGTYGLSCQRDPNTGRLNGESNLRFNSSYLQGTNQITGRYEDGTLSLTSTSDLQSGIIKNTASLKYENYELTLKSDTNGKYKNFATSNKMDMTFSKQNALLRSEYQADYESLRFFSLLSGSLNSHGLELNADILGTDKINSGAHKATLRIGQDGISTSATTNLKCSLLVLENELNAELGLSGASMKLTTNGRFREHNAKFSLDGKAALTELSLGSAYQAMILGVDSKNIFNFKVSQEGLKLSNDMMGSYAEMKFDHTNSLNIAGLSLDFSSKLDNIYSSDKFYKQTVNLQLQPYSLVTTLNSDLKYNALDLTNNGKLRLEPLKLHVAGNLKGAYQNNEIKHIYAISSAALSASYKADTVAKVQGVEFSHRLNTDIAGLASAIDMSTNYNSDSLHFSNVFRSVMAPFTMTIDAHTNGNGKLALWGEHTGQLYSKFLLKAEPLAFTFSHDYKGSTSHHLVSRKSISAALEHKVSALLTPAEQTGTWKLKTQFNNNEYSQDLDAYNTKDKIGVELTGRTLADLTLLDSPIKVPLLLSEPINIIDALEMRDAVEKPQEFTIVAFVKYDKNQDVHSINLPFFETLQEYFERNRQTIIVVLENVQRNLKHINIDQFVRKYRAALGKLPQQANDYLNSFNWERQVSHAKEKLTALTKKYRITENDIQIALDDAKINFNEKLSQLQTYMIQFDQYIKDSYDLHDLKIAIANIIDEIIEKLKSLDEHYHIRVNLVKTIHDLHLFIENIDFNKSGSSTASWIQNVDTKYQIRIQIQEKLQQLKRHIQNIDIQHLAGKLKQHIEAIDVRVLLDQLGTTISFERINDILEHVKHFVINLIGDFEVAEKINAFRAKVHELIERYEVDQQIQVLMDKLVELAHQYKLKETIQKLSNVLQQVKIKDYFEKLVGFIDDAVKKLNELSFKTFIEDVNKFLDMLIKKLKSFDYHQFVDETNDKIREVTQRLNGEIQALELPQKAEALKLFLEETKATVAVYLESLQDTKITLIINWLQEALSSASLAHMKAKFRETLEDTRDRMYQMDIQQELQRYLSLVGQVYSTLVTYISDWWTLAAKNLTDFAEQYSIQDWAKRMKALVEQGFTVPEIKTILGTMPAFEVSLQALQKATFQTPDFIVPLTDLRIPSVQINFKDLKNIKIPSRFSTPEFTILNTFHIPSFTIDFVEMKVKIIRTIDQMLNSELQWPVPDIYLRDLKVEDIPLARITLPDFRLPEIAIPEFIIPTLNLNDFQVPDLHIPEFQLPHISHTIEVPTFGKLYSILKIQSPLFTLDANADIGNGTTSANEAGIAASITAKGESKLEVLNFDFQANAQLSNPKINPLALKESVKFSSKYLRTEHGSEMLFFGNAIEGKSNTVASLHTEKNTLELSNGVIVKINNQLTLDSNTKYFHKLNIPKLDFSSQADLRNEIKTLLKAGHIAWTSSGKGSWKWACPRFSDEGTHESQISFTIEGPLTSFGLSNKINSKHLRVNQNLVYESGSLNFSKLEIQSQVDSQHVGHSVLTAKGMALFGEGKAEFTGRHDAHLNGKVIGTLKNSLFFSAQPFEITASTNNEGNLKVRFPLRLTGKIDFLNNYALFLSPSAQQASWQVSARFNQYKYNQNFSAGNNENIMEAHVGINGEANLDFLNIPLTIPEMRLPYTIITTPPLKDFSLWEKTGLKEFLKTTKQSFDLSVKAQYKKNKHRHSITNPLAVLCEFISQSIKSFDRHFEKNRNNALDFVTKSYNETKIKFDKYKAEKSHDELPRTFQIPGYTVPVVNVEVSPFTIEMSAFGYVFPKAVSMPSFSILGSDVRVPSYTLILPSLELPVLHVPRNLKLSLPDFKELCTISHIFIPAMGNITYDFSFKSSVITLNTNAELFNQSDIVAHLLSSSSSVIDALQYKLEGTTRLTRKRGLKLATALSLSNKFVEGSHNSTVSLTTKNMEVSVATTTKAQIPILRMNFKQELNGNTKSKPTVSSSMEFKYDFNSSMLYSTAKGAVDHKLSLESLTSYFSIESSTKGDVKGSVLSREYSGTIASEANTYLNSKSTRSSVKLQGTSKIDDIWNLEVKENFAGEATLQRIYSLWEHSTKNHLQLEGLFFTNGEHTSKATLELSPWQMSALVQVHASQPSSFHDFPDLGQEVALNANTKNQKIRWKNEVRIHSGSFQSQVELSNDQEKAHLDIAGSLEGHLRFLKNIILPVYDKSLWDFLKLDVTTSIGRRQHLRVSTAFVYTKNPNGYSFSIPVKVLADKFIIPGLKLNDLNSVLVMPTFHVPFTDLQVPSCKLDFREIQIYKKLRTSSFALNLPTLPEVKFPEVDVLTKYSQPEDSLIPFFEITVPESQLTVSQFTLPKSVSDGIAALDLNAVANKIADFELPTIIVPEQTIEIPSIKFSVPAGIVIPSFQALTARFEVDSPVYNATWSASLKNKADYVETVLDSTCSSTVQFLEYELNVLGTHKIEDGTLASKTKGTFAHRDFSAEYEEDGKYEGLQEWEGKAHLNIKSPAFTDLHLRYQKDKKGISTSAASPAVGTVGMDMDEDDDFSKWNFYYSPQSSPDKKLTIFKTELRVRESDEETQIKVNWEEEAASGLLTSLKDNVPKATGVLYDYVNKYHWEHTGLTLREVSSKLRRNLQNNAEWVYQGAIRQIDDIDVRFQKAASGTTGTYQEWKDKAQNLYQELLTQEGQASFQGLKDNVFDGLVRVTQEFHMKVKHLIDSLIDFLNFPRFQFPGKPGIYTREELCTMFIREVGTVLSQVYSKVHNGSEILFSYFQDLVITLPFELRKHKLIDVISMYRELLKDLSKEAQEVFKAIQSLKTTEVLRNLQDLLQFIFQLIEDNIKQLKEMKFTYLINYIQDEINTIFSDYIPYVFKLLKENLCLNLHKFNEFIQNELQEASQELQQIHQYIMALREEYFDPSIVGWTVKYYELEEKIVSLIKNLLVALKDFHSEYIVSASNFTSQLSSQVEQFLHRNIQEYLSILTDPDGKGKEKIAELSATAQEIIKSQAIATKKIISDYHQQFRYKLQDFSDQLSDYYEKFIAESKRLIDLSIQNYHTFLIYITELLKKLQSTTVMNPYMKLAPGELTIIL

For `CCCCC/C=C\C/C=C\CCCCCCCC(=O)O[C@H]1CC[C@@]2(C)C(=CC[C@H]3[C@@H]4CC[C@H]([C@H](C)CCCC(C)C)[C@@]4(C)CC[C@@H]32)C1` [Cholesteryl linolate], the “Self-fluorescence present or not” value in series [1] is “had self-fluorescence”. Also, the Self-fluorescence colour result is given as “W” in series [1] (setting [5]) and “Y” in series [1] (setting [6]).
Take `Cc1cc(-c2ccc(/N=N/c3ccc4c(S(=O)(=O)O)cc(S(=O)(=O)O)c(N)c4c3O)c(C)c2)ccc1/N=N/c1ccc2c(S(=O)(=O)O)cc(S(=O)(=O)O)c(N)c2c1O` [Evans blue]: in series [1], the “Self-fluorescence present or not” value was “no self-fluorescence”. The Dye-evoked fluorescence colour result in series [2] (setting [7]) and in series [2] (setting [8]) was “O” in each case.
Turning to `CC[n+]1c(-c2ccccc2)c2cc(N)ccc2c2ccc(N)cc21` [Homidium chloride], the “Self-fluorescence present or not” value in series [1] is recorded as “has self-fluorescence”. Moreover, the Self-fluorescence colour entry is reported as “Y” in series [1] (setting [5]) and “O” in series [1] (setting [6]). In addition, the Dye-evoked fluorescence colour entry in series [3] (setting [7]) and in series [3] (setting [8]) was “RO” throughout.
As for `CC1=NN(c2cc(Cl)c(S(=O)(=O)[O-])cc2Cl)C(=O)C1N=Nc1ccc(S(=O)(=O)[O-])cc1.[Na+].[Na+]` (stereo not drawn) [Lissamine fast yellow], the “Self-fluorescence present or not” value in series [1] is recorded as “no self-fluorescence”.
The same measure, in the same setting: then `O=S(=O)([O-])c1cccc(N=Nc2ccc(Nc3ccccc3)cc2)c1.[Na+]` [Metanyl yellow], with “no self-fluorescence”.
Take `CC[N+](CC)=c1ccc2nc3c(cc(N)c4ccccc43)oc-2c1` [Nile blue]: in series [1], the “Self-fluorescence present or not” value is given as “no self-fluorescence”. For the same compound, the figures for the Dye-evoked fluorescence colour entry in series [2] (setting [7]) and in series [2] (setting [8]) were “O” and “G”, respectively.
`Cc1cc(-c2ccc(/N=N/c3c(S(=O)(=O)[O-])cc4cc(S(=O)(=O)[O-])cc(N)c4c3O)c(C)c2)ccc1/N=N/c1c(S(=O)(=O)[O-])cc2cc(S(=O)(=O)[O-])cc(N)c2c1O.[Na+].[Na+].[Na+].[Na+]` [Tripan blue]: in series [1], the “Self-fluorescence present or not” value is reported as “no self-fluorescence”. Further, the Dye-evoked fluorescence colour entry is listed as “O” in series [2] (setting [8]) and “P” in series [4].
In the case of `CC1=C(/C=C/C(C)=C/C=C/C(C)=C/C=C/C=C(C)/C=C/C=C(C)/C=C/C2=C(C)CCCC2(C)C)C(C)(C)CCC1` [beta-Carotene], the “Self-fluorescence present or not” value in series [1] was “had self-fluorescence”. Besides, the Self-fluorescence colour entry in series [1] (setting [5]) and in series [1] (setting [6]) was “O” throughout.
As to `CC(C)CCC[C@@H](C)[C@H]1CC[C@H]2[C@@H]3CC=C4C[C@@H](O)CC[C@]4(C)[C@H]3CC[C@]12C` [free Cholesterol], in series [1], the “Self-fluorescence present or not” value is on record as “had self-fluorescence”. Also, the Self-fluorescence colour result in series [1] (setting [5]) is “W”; in series [1] (setting [6]), “Y”.
Take phosphatidylcholine [PC]: in series [1], the “Self-fluorescence present or not” value is listed as “had self-fluorescence”. The Self-fluorescence colour result in series [1] (setting [5]) is “W”.
